This note sets out measurements from patent US9510595B2, “Pesticidal mixtures” (Syngenta Participations AG, priority 2012, dated 2016).

In assay [1] the test system is Heliothis virescens (Tobacco Budworm). Description: Heliothis virescens egg/larval mortality on artificial diet, 24-well plate. The format is in vivo. The settings on record: for 1-1 observed control %: 1-1 alone; for 2-7 Observe control %: 2-7 alone; for DMET observed control %: DMET alone; for SPAT observed control %: SPAT alone. As for the experimental part: Heliothis virescens (Tobacco Budworm)
Eggs (0-24 h old) are placed in 24-well microtiter plate on artificial diet and treated with test solutions (DMSO) by pipetting. After an incubation period of 4 days, samples are checked for larval mortality.
(§1) When a compound applied alone gave no control at a particular rate, it is assumed that lower rates of that compound alone also give no control. DMET=deltamethrin, SPAT=spirotetramat, 1-1 is compound 1 in Table 1, 2-7 is compound 7 in Table 2.

Assay [2] concerns Tetranychus urticae (Two-Spotted Spider Mite). Description: Tetranychus urticae mixed population mortality on sprayed bean leaf discs. It is filed as in vivo. The settings on record: for 2-7 observed control %: 2-7 alone; for SPAT observed control %: SPAT alone.
Source text: Tetranychus urticae (Two-Spotted Spider Mite)
Bean leaf discs on agar in 24-well microtiter plates are sprayed with test solutions (DMSO). After drying, the leaf discs are infested with mite populations of mixed ages. 8 days later, discs are checked for mixed population mortality.
as §1

As for `N#Cc1cc(C2=NOC(c3cc(Cl)cc(Cl)c3)(C(F)(F)F)C2)ccc1-n1cncn1` (racemic) [1-1], the “1-1 observed control %” value in assay [1] (0.78 ppm) stood at 0%; in assay [1] (1.56 ppm), 0%; in assay [1] (3.125 ppm), 45%; in assay [1] (6.25 ppm), 85%; in assay [1] (12.5 ppm), 85%; in assay [1] (25 ppm), 90%.

For `N#Cc1cc(C2=NCC(c3cc(Cl)c(Cl)c(Cl)c3)(C(F)(F)F)C2)ccc1-n1cncn1` (racemic) [2-7], the “2-7 Observe control %” value in assay [1] (0.025 ppm) came to 0%; in assay [1] (0.05 ppm) it was 10%; in assay [1] (0.1 ppm) it was 55%; in assay [1] (0.2 ppm), 80%; in assay [1] (0.4 ppm) it was 90%. The “2-7 observed control %” value is listed as 0% in assay [2] (0.187 ppm); 0% in assay [2] (0.375 ppm); 25% in assay [2] (0.75 ppm); 75% in assay [2] (1.5 ppm); 80% in assay [2] (3.0 ppm).

Turning to `CC1(C)[C@H](C(=O)O[C@H](C#N)c2cccc(Oc3ccccc3)c2)[C@@H]1C=C(Br)Br` [DMET, deltamethrin], the “DMET observed control %” value in assay [1] (0.0125 ppm), in assay [1] (0.025 ppm), in assay [1] (0.05 ppm), in assay [1] (0.1 ppm), in assay [1] (0.2 ppm) and in assay [1] (0.4 ppm) was 0% in each case. In addition, in assay [1] (0.8 ppm), the “DMET observed control %” value was determined as 0%.

On to `CCOC(=O)OC1=C(c2cc(C)ccc2C)C(=O)N[C@]12CC[C@@H](OC)CC2` [SPAT, spirotetramat], for which the “SPAT observed control %” value in assay [1] (1.56 ppm), in assay [1] (3.12 ppm), in assay [1] (3.125 ppm), in assay [1] (6.25 ppm), in assay [1] (12.5 ppm) and in assay [1] (25 ppm) was 0% in each case. Besides, the “SPAT observed control %” value in assay [1] (50 ppm) is listed as 0%; in assay [1] (100 ppm), 0%; in assay [1] (200 ppm) it was 60%; in assay [2] (1.56 ppm), 0%; in assay [2] (3.125 ppm), 0%; in assay [2] (12.5 ppm), 65%. Also, the “SPAT observed control %” value in assay [2] (25 ppm) came out at 80%; in assay [2] (50 ppm), 85%; in assay [2] (100 ppm), 85%; in assay [2] (200 ppm), 85%.
